From US6528514B1, “IgE antibody production inhibitors and autoimmune diseases inhibitors” (Welfide Corporation, priority 1998, dated 2003) come the findings set out here.

The test system of test [1] is IgE antibody. Description: Determination of serum IgE antibody titer in HgCl2-administered BN rats (ELISA). The class given is in vivo, rat. The note with it: for Serum IgE antibody titer / inhibition of IgE antibody titer increased by HgCl2 (in words): male BN rats; for Serum IgE antibody titer: HgCl2 1 mg/mL/kg s.c., compound 30 mg/kg/day orally for 6 days, serum on day 7, *p < 0.05; for inhibition at 30 mg/kg/day: Rattus norvegicus, po, read-out: Inhibition rate. The procedure: HgCl2, 1 mg/mL/kg, was administered to male BN rats (8 animals per group) subcutaneously at the back (HgCl2 group). Separately, to male BN rats (8 animals per group) similarly administered with HgCl2, Compounds 1˜4 were administered orally in a daily dose of 30 mg/kg for 6 consecutive days beginning the HgCl2 administration day (Compound 1 administration group, Compound 2 administration group, Compound 3 administration group, and Compound 4 administration group, respectively). Here, Compound 3 is 2-[5-amino-2-(3-methoxyphenyl)-6-oxo-1,6-dihydro-1-pyrimidinyl]-N-[1-[(benzoxazol-2-yl)carbonyl]-2-phenylethyl]acetamide and Compound 4 is 2-[5-amino-2-(3-methoxyphenyl)-6-oxo-1,6-dihydro-1-pyrimidin-yl]-N-[1-[[5-(methoxycarbonyl)benzoxazol-2-yl]carbonyl]-2-phenylethyl]acetamide. On day 7 following HgCl2 administration, the animals were sacrificed with CO2 gas, thoracotomized, and the cardiac blood was collected and centrifuged to recover the serum. The serum samples were stored at −20° C. and the IgE antibody titer was determined by the following procedure.
Anti-rat IgE monoclonal antibody [MCARE-01] [manufactured by Biochemical Industry Co., 01404] was diluted to 5 μg/mL with 0.02% NaN3/PBS and an ELISA plate was coated with 50 μL of the solution at 4° C. overnight. After each well was washed, blocking was performed with 3% skim milk/TBS at room temperature for at least 1 hour. After another washing, 50 μL of the test sample diluted 200-fold with 1% BSA/TBS was added to each well, followed by 2 hours of incubation at room temperature. Each well was washed and 50 μL of ALP-labeled anti-rat κ & λ-chain monoclonal antibody (Sigma, lot 113H4804) diluted 5000-fold with 1% BSA/TBS was added. The plate was incubated at room temperature for 2 hours. Each well was washed again, and 50 μL/well of p-nitrophenyl phosphate (in 0.1 M diethanolamine, 1 mg/mL, pH 9.8) was added as the substrate solution. After color development, the reaction was stopped with an equal amount of 0.5 M NaOH and the OD was measured at the wavelength of 405 nm. As the standard rat IgE, Chemicon's rat IgE was used.

Test [2] has as its target T1, human heart chymase (Homo sapiens, UniProt P23946).
T1 sequence (P23946 22-247): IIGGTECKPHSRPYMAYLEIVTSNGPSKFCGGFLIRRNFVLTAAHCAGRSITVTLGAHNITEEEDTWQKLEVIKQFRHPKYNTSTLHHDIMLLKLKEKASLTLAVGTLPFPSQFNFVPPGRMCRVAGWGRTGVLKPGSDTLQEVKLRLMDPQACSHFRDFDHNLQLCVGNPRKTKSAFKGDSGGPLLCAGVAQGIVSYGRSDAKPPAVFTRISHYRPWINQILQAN
In words: human heart chymase inhibitory activity test (amidase inhibitory activity). The settings on record: 5 nM chymase; substrate succinyl-alanyl-alanyl-prolyl-phenylalanine-p-nitroanilide; pH 7.5. The class given is biochemical.
Description: The human heart chymase-inhibitory activity of the obtained Compound 1 was assayed in terms of amidase inhibitory activity of human heart chymase and the efficacy of the compound was evaluated as follows.
The inhibitory activity was determined from the change in residual activity fraction of 5 nM chymase using a concentration series (<×1,<×10,<×100 equivalents) of Compound 1 in the presence of the synthetic substrate succinyl-alanyl-alanyl-prolyl-phenylalanine-p-nitroanilide at a final concentration of 2.5 mmol. Analysis of inhibitory potency was made by the least square regression of the Easson-Stedman plot utilizing bimolecular equilibrium reaction linearization (Proc. Roy. Soc. B., 121, 141, 1936). The apparent inhibition constant (Kiapp) obtained by this analysis and the inhibition constant (Ki) calculated from the final concentration of the substrate in the reaction mixture and the Km value measured separately were used to evaluate the inhibitory activity. For determination of the initial velocity of the enzymatic reaction, the amount of p-nitroaniline produced by hydrolysis of the substrate was spectrometrically estimated from the increase in the absorbance at 405 nm after subtraction of the absorbance at 650 nm. […]
From the absorbance reading immediately after addition of the enzyme, the increase in absorbance was recorded at exactly equal time-intervals as a progressive curve.

Test [3] concerns male BN rats. In words: Arthritis assay in HgCl2-administered BN rats (hindpaw volume, severity score). It is filed as in vivo, rat. The settings on record: HgCl2 s.c. every other day day 1 to day 10, Compound 1 orally every day. The procedure: HgCl2, 1 mg/mL/kg, was administered to male BN rats (8 animals per group) subcutaneously at the back every other day from day 1 to day 10, for a total of 5 times (HgCl2 administration group). Separately, in parallel with the administration of HgCl2, Compound 1 was administered orally in a daily dose of […] every day (Compound 1 administration group). In the normal group, PBS in lieu of HgCl2 was administered. On day 1, day 12, day 14, day 16 and day 18, the right and left hindpaw volumes were measured and the severity of arthritis was scored.
With regard to right and left hindpaw volumes, the left hindpaw and right hindpaw of each rat were respectively immersed in water and the increase in volume of the water was measured to calculate the rate of increase (%).
“LEFT” represents the left hindpaw volume and “RIGHT” represents the right hindpaw volume. The ordinate represents the rate of volume increase (%). The abscissa represents the number of days from the first day of testing to the measurement day. […]
The arthritis severity was scored for each limb according to the following criteria and the total of scores for the four limbs (maximum score=16) and the average of the scores for 8 animals per group were calculated. […]

Test [4] relates to anti-ssDNA antibody. In words: Assay of anti-ssDNA antibody in serum of HgCl2-administered BN rats. The class given is in vivo, rat. The note with it: male BN rats, Compound 1 30 mg/kg orally every day, serum day 12, 14, 16. The procedure:
(§1) HgCl2, 1 mg/mL/kg, was administered to male BN rats (8 animals per group) subcutaneously at the back every other day from day 1 to day 10, for a total of 5 times (HgCl2 administration group). Separately, in parallel with the administration of HgCl2 in the same manner as above, Compound 1 was administered orally in a daily dose of 30 mg/kg every day (Compound 1 administration group). In the normal group, PBS was administered. On day 12, day 14 and day 16, the blood was drawn from the tail vein and centrifuged to separate the serum. (2-1) Assay of anti-ssDNA antibody
A 96-well plate was coated with 50 μL/well of ε-poly-L-lysine having a molecular weight of 2000˜4000 (Wako Pure Chemical Industries, ECN 6644, 25 μg/mL in PBS) at room temperature for 3 hours. […]
After washing, 50 μL of the test sample diluted 50-fold with 1% BSA/PBS was added to each well, and the plate was incubated at room temperature for 2 hours. […] Amount of bound antibody was measured as the change of absorbance at 490 nm to 650 nm with the combination of peroxidase-labeled anti-rat IgE(Fc) monoclonal antibody and o-phenylendiamine (1mg/mL) and H2O2 (as the control, the OD on day 1 was used). The amount of anti-ssDNA antibody was calculated as the difference (ΔOD) from that of the background.
The ordinate represents the difference in absorbance (ΔOD) . […]

Test [5] has as its system anti-type II collagen antibody. In words: Assay of anti-type II collagen antibody in serum of HgCl2-administered BN rats. It is filed as in vivo, rat. The note with it: male BN rats, Compound 1 30 mg/kg orally every day, serum day 12, 14, 16. As to the method: as §1
Type II collagen (Collagen Technology Forum, 64-50823) was diluted to 50 μg/mL with 0.02% NaN3/PBS and an ELISA plate was coated with 50 μL/well at 4° C. overnight. After washing, 50 μL of the test sample diluted 50-fold with 1% BSA/PBS was added to the each well and the plate was incubated at room temperature for 2 hours. As the background, wells not supplied with the test sample were provided. Amount of bound antibody was measured as the change of absorbance at 490 nm to 650 nm with the combination of peroxidase-labeled anti-rat IgE(Fc) monoclonal antibody and o-phenylendiamine (1 mg/mL) and H2O2 (as the control, the OD on day 1 was used). The amount of anti-type II collagen antibody was calculated as the difference (ΔOD) from that of the background.
The ordinate represents the difference in absorbance (ΔOD). […]

[6] abbreviates: inhibition of serum IgE antibody titer vs HgCl2 group, 30 mg/kg/day orally for 6 days, day 7.

`Nc1cnc(-c2cccc(Cl)c2)n(CC(=O)NC(Cc2ccccc2)C(=O)C(F)(F)C(=O)NCc2ccccc2)c1=O` (centres unmarked) [Compound 2, 2-[5-amino-2-(3-chlorophenyl)-1 6-dihydro-6-oxo-1-pyrimidinyl]-N-[1-benzyl-3-[N-(benzyl)carbamoyl]-3,3-difluoro-2-oxopropyl]acetamide]: the Inhibition rate in test [1] (setting [6]) amounted to 22.3%. For the same compound, in test [1], the Serum IgE antibody titer was 67 ± 7.57 µg/mL. Besides, the “inhibition of IgE antibody titer increased by HgCl2 (in words)” value in test [1] (30 mg/kg/day orally for 6 days) is given as “tendency to inhibit”.
In test [2], `COC(=O)c1ccc2oc(C(=O)C(Cc3ccccc3)NC(=O)Cn3c(-c4ccc(F)cc4)ncc(N)c3=O)nc2c1` (centres unmarked) [Compound 1, 2-[5-amino-2-(4-fluorophenyl)-6-oxo-1,6-dihydro-1-pyrimidinyl]-N-[1-[[5-(methoxycarbonyl)benzoxazol-2-yl]carbonyl]-2-phenylethyl]acetamide] yielded a Ki of 23 nM. Further, the inhibition at 30 mg/kg/day in test [1] (setting [6]) came out at 27.8%. In addition, the “Serum IgE antibody titer” value in test [1] is given as 62.24 ± 5.08*. In test [1] (30 mg/kg/day orally for 6 days), the “inhibition of IgE antibody titer increased by HgCl2 (in words)” value is given as “significantly inhibited”. For the same compound, in test [3] (measured up to day 18), the “rate of increase in left and right hindpaw volumes (FIG. 1)” value is on record as “significantly suppressed”. For the same compound, the “arthritis severity score (FIG. 2)” value in test [3] (total of four limbs, maximum 16) is reported as “significantly reduced”. Further, the “amount of anti-ssDNA antibody (ΔOD, FIG. 3)” value in test [4] is given as “significantly reduced”. In addition, the “anti-type II collagen antibody titer (ΔOD, FIG. 4)” value in test [5] is “reduced”.
Consider `COc1cccc(-c2ncc(N)c(=O)n2CC(=O)NC(Cc2ccccc2)C(=O)c2nc3ccccc3o2)c1` (centres unmarked) [Compound 3, 2-[5-amino-2-(3-methoxyphenyl)-6-oxo-1,6-dihydro-1-pyrimidinyl]-N-[1-[(benzoxazol-2-yl)carbonyl]-2-phenylethyl]acetamide], for which the inhibition at 30 mg/kg/day in test [1] (setting [6]) was 24.3%. In addition, the “Serum IgE antibody titer” value in test [1] is 65.25 ± 6.71*. The “inhibition of IgE antibody titer increased by HgCl2 (in words)” value in test [1] (30 mg/kg/day orally for 6 days) is listed as “significantly inhibited”.
The corresponding values for `COC(=O)c1ccc2oc(C(=O)C(Cc3ccccc3)NC(=O)Cn3c(-c4cccc(OC)c4)ncc(N)c3=O)nc2c1` (centres unmarked) [Compound 4, 2-[5-amino-2-(3-methoxyphenyl)-6-oxo-1,6-dihydro-1-pyrimidin-yl]-N-[1-[[5-(methoxycarbonyl)benzoxazol-2-yl]carbonyl]-2-phenylethyl]acetamide] are 23.4%, 66.10 ± 8.46* and “significantly inhibited”.
